Assay results: PubChem BioAssay AID1963977 (Molecular Pharmacology Branch, DTP, NCI, 2024)

Tested on: 624824-186-R-J3-PDC multicell spheroids, viability
Assay: Anticancer human tumor 624824-186-R-J3-PDC patient-derived colon adenocarcinoma cell line growth inhibition [PI3K]
Settings: for IC50: curve of first compound; for viability, T/C: stronger effect = lower value
Outline: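 Tumor cells grown as multi-cell spheroids with HUVEC endothelial cells and MSC fibroblast-like stroma were treated with targeted agents combined with inavolisib, alpelisib, duvelisib or copanlisib. Doses fell in half-log steps from near clinical Cmax, else from 10 microM. Viability was measured.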

[1] = second compound 0.0316 µM, first compound 0.0316 µM
[2] = second compound 0.0316 µM, first compound 0.1 µM
[3] = second compound 0.0316 µM, first compound 0.316 µM
[4] = second compound 0.0316 µM, first compound 1 µM
[5] = second compound 0.1 µM, first compound 0.0316 µM
[6] = second compound 0.1 µM, first compound 0.1 µM
[7] = second compound 0.1 µM, first compound 0.316 µM
[8] = second compound 0.1 µM, first compound 1 µM
[9] = second compound 0.316 µM, first compound 0.0316 µM
[10] = second compound 0.316 µM, first compound 0.1 µM
[11] = second compound 0.316 µM, first compound 0.316 µM
[12] = second compound 0.316 µM, first compound 1 µM
[13] = second compound 1 µM, first compound 0.0316 µM
[14] = second compound 1 µM, first compound 0.1 µM
[15] = second compound 1 µM, first compound 0.316 µM
[16] = second compound 1 µM, first compound 1 µM
[17] = second compound 3.16 µM, first compound 0.0316 µM
[18] = second compound 3.16 µM, first compound 0.1 µM
[19] = second compound 3.16 µM, first compound 0.316 µM
[20] = second compound 3.16 µM, first compound 1 µM
[21] = second compound 10 µM, first compound 0.0316 µM
[22] = second compound 10 µM, first compound 0.1 µM
[23] = second compound 10 µM, first compound 0.316 µM
[24] = second compound 10 µM, first compound 1 µM
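Note: spheroids exposed to agents for seven days before luminescence read.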
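Throughout, for viability, T/C: luminescent signal used as a stand-in for spheroid viability; percent viability relative to DMSO vehicle control wells taken as 100%.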

CC(C)NCC(C(=O)N1CCN(c2ncnc3c2C(C)CC3O)CC1)c1ccc(Cl)cc1 (centres undefined) + Cc1nc(NC(=O)N2CCCC2C(N)=O)sc1-c1ccnc(C(C)(C)C(F)(F)F)c1 gave an IC50 (second compound 0.0316 µM) of 5340 nM, an IC50 (second compound 0.1 µM) of 5110 nM and an IC50 (second compound 0.316 µM) of 4590 nM. For the same compound, the IC50 (second compound 1 µM) was 2850 nM, the IC50 (second compound 3.16 µM) was 2030 nM and the IC50 (second compound 10 µM) was 1420 nM. The viability, T/C [1] was 108%, the viability, T/C [2] was 108% and the viability, T/C [3] was 99%. For the same compound, the viability, T/C [4] was 78.2%, the viability, T/C (second compound 0.0316 µM, first compound 3.16 µM) was 59.8% and the viability, T/C (second compound 0.0316 µM, first compound 10 µM) was 39.7%. It also gave a viability, T/C [5] of 107%, a viability, T/C [6] of 92.8% and a viability, T/C [7] of 93.2%. For the same compound, the viability, T/C [8] was 77.1%, the viability, T/C (second compound 0.1 µM, first compound 3.16 µM) was 53.2% and the viability, T/C (second compound 0.1 µM, first compound 10 µM) was 43.2%. For the same compound, the viability, T/C [9] was 104%, the viability, T/C [10] was 104% and the viability, T/C [11] was 91.1%. It also gave a viability, T/C [12] of 75.8%, a viability, T/C (second compound 0.316 µM, first compound 3.16 µM) of 53.3% and a viability, T/C (second compound 0.316 µM, first compound 10 µM) of 41.9%. For the same compound, the viability, T/C [13] was 95.5%, the viability, T/C [14] was 105% and the viability, T/C [15] was 86.8%. The viability, T/C [16] was 72.6%, the viability, T/C (second compound 1 µM, first compound 3.16 µM) was 46.5% and the viability, T/C (second compound 1 µM, first compound 10 µM) was 39.5%. The viability, T/C [17] was 86.8%, the viability, T/C [18] was 77.4% and the viability, T/C [19] was 79.8%. It also gave a viability, T/C [20] of 59%, a viability, T/C (second compound 3.16 µM, first compound 3.16 µM) of 44.2% and a viability, T/C (second compound 3.16 µM, first compound 10 µM) of 32.1%. It also gave a viability, T/C [21] of 68.1%, a viability, T/C [22] of 64.9% and a viability, T/C [23] of 70.8%. For the same compound, the viability, T/C [24] was 52.5%, the viability, T/C (second compound 10 µM, first compound 3.16 µM) was 41.2% and the viability, T/C (second compound 10 µM, first compound 10 µM) was 32.8%.

In the case of CCN1CCN(Cc2ccc(Nc3ncc(F)c(-c4cc(F)c5nc(C)n(C(C)C)c5c4)n3)nc2)CC1 + Cc1nc(NC(=O)N2CCCC2C(N)=O)sc1-c1ccnc(C(C)(C)C(F)(F)F)c1, the IC50 (second compound 0.0316 µM) is reported as > 1000 nM, the IC50 (second compound 0.1 µM) is reported as > 1000 nM and the IC50 (second compound 0.316 µM) is reported as > 1000 nM. The IC50 (second compound 1 µM) was > 1000 nM, the IC50 (second compound 3.16 µM) was 753 nM and the IC50 (second compound 10 µM) was 29.6 nM. For the same compound, the viability, T/C (second compound 0.0316 µM, first compound 0.00316 µM) was 106%, the viability, T/C (second compound 0.0316 µM, first compound 0.01 µM) was 99.3% and the viability, T/C [1] was 106%. It also gave a viability, T/C [2] of 108%, a viability, T/C [3] of 100% and a viability, T/C [4] of 94.2%. It also gave a viability, T/C (second compound 0.1 µM, first compound 0.00316 µM) of 106%, a viability, T/C (second compound 0.1 µM, first compound 0.01 µM) of 109% and a viability, T/C [5] of 112%. For the same compound, the viability, T/C [6] was 107%, the viability, T/C [7] was 97.5% and the viability, T/C [8] was 89.6%. The viability, T/C (second compound 0.316 µM, first compound 0.00316 µM) was 102%, the viability, T/C (second compound 0.316 µM, first compound 0.01 µM) was 116% and the viability, T/C [9] was 97.4%. The viability, T/C [10] was 94.6%, the viability, T/C [11] was 88.1% and the viability, T/C [12] was 73.1%. It also gave a viability, T/C (second compound 1 µM, first compound 0.00316 µM) of 101%, a viability, T/C (second compound 1 µM, first compound 0.01 µM) of 105% and a viability, T/C [13] of 98.1%. The viability, T/C [14] was 81.6%, the viability, T/C [15] was 62.9% and the viability, T/C [16] was 58.3%. For the same compound, the viability, T/C (second compound 3.16 µM, first compound 0.00316 µM) was 85.3%, the viability, T/C (second compound 3.16 µM, first compound 0.01 µM) was 92% and the viability, T/C [17] was 77.8%. It also gave a viability, T/C [18] of 57%, a viability, T/C [19] of 47.9% and a viability, T/C [20] of 51.6%. The viability, T/C (second compound 10 µM, first compound 0.00316 µM) was 64.6%, the viability, T/C (second compound 10 µM, first compound 0.01 µM) was 59.6% and the viability, T/C [21] was 50.4%. For the same compound, the viability, T/C [22] was 41.5%, the viability, T/C [23] was 36.6% and the viability, T/C [24] was 48.6%.
